Tests used:
[1] = tested on: KURAMOCHI; assay: drug sensitivity score (DSS2) on cancer cell count; higher = more sensitive; extreme values may be limits of the assay; details: 72 h
Procedure, shortened: (§1)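 Ovarian cancer cells were cultured either alone or directly mixed 1:1 with lung or skin fibroblasts and plated onto 384-well plates acoustically pre-spotted with 528 approved and investigational compounds at 5 concentrations for 72 h of treatment. After fixation, cells were immunostained for CK8/18 with Hoechst and imaged at 10× across 4 fields to count cancer cells. Responses were fitted with 4-parameter logistic curves, and from these fits a drug sensitivity score was derived in Breeze, with screen quality assessed by Z'.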

[2] = tested on: OVCAR8; assay: as above; details: 72 h
Procedure, shortened: as §1

[3] = co-cultured fibroblast: BJHTERT
[4] = co-cultured fibroblast: none (monoculture)

SMILES	drug sensitivity score [1, 3]	drug sensitivity score ([1]; co-cultured fibroblast: WI38)	drug sensitivity score [1, 4]	drug sensitivity score [2, 3]	drug sensitivity score ([2]; co-cultured fibroblast: WI38)	drug sensitivity score [2, 4]
COC(=O)C[C@](O)(CCCC(C)(C)O)C(=O)O[C@@H]1C(OC)=C[C@]23CCCN2CCc2cc4c(cc2[C@H]13)OCO4 [Omacetaxine]	23.8 DSS	24.5 DSS	30.6 DSS	29.3 DSS	30.1 DSS	29.8 DSS
CC1(C)CC[C@]2(NC(=O)C(C)(F)F)CC[C@]3(C)[C@H](C(=O)C=C4[C@@]5(C)C=C(C#N)C(=O)C(C)(C)[C@@H]5CC[C@]43C)[C@@H]2C1 [Omaveloxolone]	17.2 DSS	17.8 DSS	20.1 DSS	7 DSS	20 DSS	21.5 DSS
COc1ncc(-c2ccc3nccc(-c4ccnnc4)c3c2)cc1NS(=O)(=O)c1ccc(F)cc1F [Omipalisib]	17.1 DSS	17.9 DSS	12.1 DSS	8.9 DSS	6.5 DSS	13 DSS
CC(C)c1cc(C(=O)N2Cc3ccc(CN4CCN(C)CC4)cc3C2)c(O)cc1O [Onalespib]	13 DSS	14.6 DSS	14.9 DSS	17.4 DSS	18.5 DSS	23.5 DSS
COC[C@H](NC(=O)c1cnc(C)s1)C(=O)N[C@@H](COC)C(=O)N[C@@H](Cc1ccccc1)C(=O)[C@@]1(C)CO1 [Oprozomib]	15.7 DSS	15.1 DSS	12.6 DSS	17.7 DSS	12.7 DSS	10.8 DSS
CNC(=O)c1ccc2cc([C@@]3(O)CCn4cncc43)ccc2c1 [Orteronel]	0 DSS	0 DSS	0.5 DSS	0 DSS	0.3 DSS	0 DSS
C=CC(=O)Nc1cc(Nc2nccc(-c3cn(C)c4ccccc34)n2)c(OC)cc1N(C)CCN(C)C [Osimertinib]	10.7 DSS	6.8 DSS	10.7 DSS	6.8 DSS	0.6 DSS	3.7 DSS
O=C(O)C(=O)O.[NH-][C@@H]1CCCC[C@H]1[NH-].[Pt+2] [Oxaliplatin]	9.3 DSS	16 DSS	18.1 DSS	13.9 DSS	19.6 DSS	18.2 DSS
C=CCc1cccc(/C=N/NC(=O)CN2CCN(Cc3ccccc3)CC2)c1O [PAC-1]	2.7 DSS	3.3 DSS	4.9 DSS	7.4 DSS	1.5 DSS	4.9 DSS
O=C(Nc1cccnc1)N1CCC(Cc2cccc(Oc3ccc(C(F)(F)F)cn3)c2)CC1 [PF-3845]	0.5 DSS	0 DSS	0 DSS	0 DSS	0 DSS	1.9 DSS
CN1CCN(c2cc(C(=O)Nc3ccc4c(c3)-c3c(c(C(N)=O)nn3-c3ccc(F)cc3)CC4)c(Cl)cn2)CC1 [PHA 408]	5.8 DSS	1.9 DSS	1.6 DSS	0.5 DSS	8.6 DSS	4.8 DSS
O=C(Nc1cc(Cl)cc2c1[nH]c1cnccc12)c1cccnc1 [PS-1145]	0.6 DSS	3.2 DSS	2.1 DSS	0 DSS	0 DSS	1.8 DSS
COc1cc(Br)c(Nc2nc(-c3c(C)nc4ncccn34)cs2)c(Br)c1 [PTC-209]	2.4 DSS	3.6 DSS	7.9 DSS	9.1 DSS	3.1 DSS	6.9 DSS
